Data taken from PMC5729429, “Gimatecan exerts potent antitumor activity against gastric cancer in vitro and in vivo via AKT and MAPK signaling pathways” (Journal of Translational Medicine, 2017).
Counter-ions that a name gives are not always drawn.

Legend:
[1] = system: GC patient-derived xenografts (PDX); experiment: Tumor growth inhibition in GC patient-derived xenograft (PDX) models; format: in vivo, NOD/SCID mice; settings: for TGIs (%): gimatecan 0.2 mg/kg daily oral gavage, irinotecan 20 mg/kg weekly i.p., 3 weeks; for antitumor activity compared with control groups: all five xenografts
Method: Establishment and serial passaging of GC patient-derived xenografts (PDX) models were as previously described. All procedures were performed under sterile conditions at an SPF facility and carried out in accordance with the guide for the Care and Use of Laboratory Animals of the National Institutes of Health. Animal experiments were approved by an independent ethics committee of Peking University Cancer Hospital.
Five PDX tissues were subcutaneously inoculated into the flanks of 6-week-old female non-obese diabetic/severe combined immunodeficiency (NOD/SCID) mice. When tumors reached 150–250 mm^3, mice were randomized to three groups (N = 5/group) with similar tumor volumes: (1) control group (physiological saline 100 µl daily, by orally gavage), (2) gimatecan group (gimatecan 0.2 mg/kg daily, by orally gavage) and (3) irinotecan group (irinotecan 20 mg/kg via weekly intraperitoneal injection). All animals were treated for 3 weeks. Tumor size and body weight were measured twice a week, and tumor volume was calculated using the following formula: V = (L × W^2)/2 (V, volume; L, length; W, width). Tumor growth inhibition (TGI) was calculated using the following formula: TGI = 1 − ΔT/ΔC × 100% (ΔT = tumor volume changes of the drug treated group, ΔC = tumor volume changes of the control group on the final day of the study).
(§1) A PDX model was established by subcutaneously transplanting tumor tissues of a patient into NOD/SCID mice and PDX 1–5 indicated PDX models from 5 different GC patients. PDX tissues were subcutaneously inoculated into mice, and when the tumor size reached 150–250 mm^3, mice (n = 5 in each group) were treated with buffer control or inhibitors. Tumor volumes were presented as mean ± SD. The antitumor activity is depicted by tumor growth inhibition (TGI). […] (ΔT = tumor volume change of the drug-treated group, ΔC = tumor volume change of the control group on the final day of the study). *p < 0.05, **p < 0.01, ***p < 0.001. b Immunohistochemical staining for Ki-67 of xenografts on day 22 of treatment from four PDX models. The ki-67 index, marker of cell proliferation, was calculated as the proportion of positive tumor cell nuclei in all tumor cells examined and labeled in red in the images. Scale bar represents 100 µm TEXT PRINTED IN THE PICTURE: (b) Vehicle: PDX 2: 100%; PDX 3: 70%; PDX 4: 70%; PDX 5: 40% | (b) Irinotecan: PDX 2: 60%; PDX 3: 70%; PDX 4: 60%; PDX 5: 50% | (b) Gimatecan: PDX 2: 60%; PDX 3: 10%; PDX 4: 40%; PDX 5: 10% DOUBTS OF THE COPYIST ABOUT THIS PICTURE: Vehicle, PDX 3: 70% or 20% (blurred red print on the image) / Vehicle, PDX 4: 70% or 20% / Vehicle, PDX 5: 40%, first digit blurred / Irinotecan, PDX 2: 60% or 80% or 50% / Irinotecan, PDX 3: 70% or 20% / Irinotecan, PDX 4: 60% or 50% or 80% / Irinotecan, PDX 5: 50% or 60% or 30% / Gimatecan, PDX 2: 60% or 50% or 80% / Gimatecan, PDX 4: 40%, first digit blurred / The measure of the percentages in panel b is not printed in the picture

NCI-N87 cells = experiment: Cell viability assay (CCK-8), NCI-N87; format: cell-based; settings: Homo sapiens, Fig. 1a 48 h exposure, 0–1 µM, read-out: IC50 antiproliferative effect
Method: Human GC cell lines SNU-1, HGC27 and MGC803 were purchased from Peking Union Medical College, and the NCI-N87 cell line was a gift from You-yong Lv, Ph.D. (Peking University Cancer Hospital and Institute). Cells were cultured in RPMI 1640 medium and Dulbecco’s Modified Eagle Medium (Gibco-BRL, MD, USA), respectively, supplemented with 10% fetal bovine serum (Gibco-BRL), 100 U/ml penicillin (Gibco-BRL) and […] streptomycin (Gibco-BRL). Cells were incubated in a humidified incubator (37 °C) supplemented with 5% CO2.
SNU-1, HGC27, MGC803 and NCI-N87 cells (5000 cells/well) were seeded in 96-well plates and incubated overnight in complete medium, followed by exposure to gimatecan (0–1 µM) or irinotecan (0–1 µM) for 24, 48, or 72 h. Cell viability was measured using a Cell Counting Kit-8 (Dojindo, Kumamoto, Japan) according to the manufacturer’s instructions. Absorbance at 450 nm was measured using a microplate spectrophotometer. All experiments were repeated at least three times.

HGC27 cells = experiment: Annexin V-PE/7-AAD apoptosis assay (flow cytometry), HGC27; format: cell-based, human; settings: 1000 nM, 24 h
Method: Apoptosis was measured by staining with phycoerythrin (PE)-annexin V and 7-amino-actinomycin (7-AAD) (BD Biosciences, Erembodegem, Belgium) for 15 min at room temperature in the dark, followed by flow cytometry (BD Biosciences) within 1 h. Apoptosis was analyzed with FlowJo 7.6 software (FlowJo, LLC, Ashland, Oregon).
Supplementary file 12967_2017_1360_MOESM2_ESM.pdf: Additional file 2: Figure S2. Gimatecan induces apoptosis in HGC27 cell line. (A) Compared with irinotecan, gimatecan induced higher cell apoptosis in HGC27 cell. Cells were treated with gimatecan (0–1 µM) and irinotecan (0–1 µM) for 24 h and stained with Annexin V-PE/7-AAD. Sums of percentages of early apoptosis (Q3) and late apoptosis (Q2) were calculated as the total apoptosis ratios. (B) Pro- and anti-apoptotic proteins including Bcl-2, Bak, PARP and cleaved PARP were assessed by western-blotting in HGC27 cell. Western-blotting bands were quantified and normalized by ImageJ. All data are means ± SD of three independent experiments. *Compared with controls, p < 0.05; ns, p > 0.05.

Ki-67 in GC PDX tissues = experiment: Immunohistochemistry staining of Ki-67 in xenograft tissues; format: in vivo, NOD/SCID mice; settings: day 22 of treatment
Method: After mice were sacrificed, xenograft tissues were isolated, and formalin-fixed paraffin embedded (FFPE) tissue sections were prepared. After deparaffinization, hydration, endogenous peroxidase treatment, and retrieval, 4-μm-thick FFPE sections were incubated with primary antibodies (1:100) overnight at 4 °C. The signal was assayed after incubation with IgG-HRP polymer (ZSGB-BIO, Beijing, China) and diaminobenzidine substrate. Sections were interpreted by pathologists from the Department of Pathology of Peking University Cancer Hospital who were blinded to this study. The scoring standard of Ki-67 was consistent with a previous report.
as §1

Structure (SMILES) | TGIs (%) ([1]; PDX model 1) | TGIs (%) ([1]; PDX model 2) | TGIs (%) ([1]; PDX model 3) | TGIs (%) ([1]; PDX model 4) | TGIs (%) ([1]; PDX model 5) | antitumor activity compared with control groups [1] | IC50 (NCI-N87 cells) [nM] | proportion of apoptotic cells (HGC27 cells) [%] | Ki-67 (%) (Ki-67 in GC PDX tissues; PDX model 2, control 100) | Ki-67 (%) (Ki-67 in GC PDX tissues; PDX model 3, control 70) | Ki-67 (%) (Ki-67 in GC PDX tissues; PDX model 4, control 70) | Ki-67 (%) (Ki-67 in GC PDX tissues; PDX model 5, control 40)
CC[C@@]1(O)C(=O)OCc2c1cc1n(c2=O)Cc2c-1nc1ccccc1c2/C=N/OC(C)(C)C [Gimatecan, 7-t-butoxyiminomethylcamptothecin] | 110.1 | 106.6 | 84.4 | 91.7 | 108.7 | significant antitumor activity | 88.2 | 14.27 ± 1.69 | 60 | 10 | 40 | 10
CCc1c2c(nc3ccc(OC(=O)N4CCC(N5CCCCC5)CC4)cc13)-c1cc3c(c(=O)n1C2)COC(=O)[C@]3(O)CC [Irinotecan, irinotecan hydrochloride] | 75.4 | 76.1 | 24.1 | 15.1 | 40.6 | significant antitumor activity | 142 | – | 60 | 70 | 60 | 50
